{"source": "patent US8338382B2", "about": "“Method of treating impaired mitochondrial function” (priority 1997, dated 2012)", "origin": "cited, not measured here", "tested_on": "depressed patients", "conditions": "literature (Sabelli 2002, 2000)"}
{"smiles": "NCCc1ccccc1", "note": "[PEA, 2-Phenylethylamine]", "values": [{"measurement": "share of depressed patients in whom PEA is effective / controls depression", "result": 60, "unit": "%"}, {"measurement": "toxic effects, tolerance or abuse", "result": "no toxic effects, tolerance or abuse"}]}
